This is an account of results in patent US11827628B2, “Compositions and methods for inhibition of the JAK pathway” (Rigel Pharmaceuticals, Inc., priority 2005, dated 2023).

For experiment [1], the system named is IL-4 stimulated expression of CD23 in human Ramos B cells (JAK-1 and JAK-3). Briefly: Assay for Ramos B-Cell Line Stimulated with IL-4 (CD23 upregulation, FACS). It is filed as cell-based. The settings on record: Ramos B cells stimulated with IL-4, CD23 expression by FACS, read-out: IC50, Example 41. In outline: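 Steps: Ramos B cells are suspended in RPMI with 5% serum, exposed to compound for 1 h at 37 °C, stimulated with IL-4 (final 50 units/mL) for 20-24 h, stained for CD23 and analysed by flow cytometry. IC50 is calculated.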
In general terms: A flow cytometer gives signals particle by particle.

For experiment [2], the system named is up-regulation of ICAM-1 (CD54) by IFNγ in U937 human monocytic cells. Briefly: U937 IFNγ ICAM1 FACS Assay. The experiment is classed as cell-based. The settings on record: ICAM-1 expression by FACS, read-out: IC50, Example 44. In outline: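 Readout was the geometric-mean APC anti-ICAM-1 signal by FACS on live U937 monocytic cells, with % live cells also recorded. Cells were exposed to compounds (8 points, 3-fold dilutions, duplicates) for 30 min at 37 °C before 18–24 h of IFNγ stimulation. EC50 values were computed from the dose curve.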

[3] abbreviates: U937 cells stimulated with IFNγ.

Read-outs that look alike come from different tables or passages of the source.

Usually IC50 stands for the concentration that gives 50% inhibition. Regarding `CNS(=O)(=O)c1cc(Nc2ncc(F)c(Nc3ccc(-c4cnco4)cc3)n2)ccc1C` [IV-7, 5-Fluoro-N2-[3-(N-methylaminosulfony)-4-methylphenyl]-N4-[4-(1,3-oxazol-5-yl)phenyl]-2,4-pyrimidinediamine], the concentration for half-maximal inhibition (IC50) was determined as 112 nM in experiment [1] and 1240 nM in experiment [2] (setting [3]).

On to `Cc1cc(Nc2nc(Nc3ccc(S(N)(=O)=O)cc3)ncc2F)cc(C)c1N1CCN(C)CC1` [IX-44, N2-(4-Aminosulfonylphenyl)-N4-[3,5-dimethyl-4-(4-methylpiperazin-1-yl]phenyl)-5-fluoro-2,4-pyrimidinediamine], for which the concentration for half-maximal inhibition (IC50) stood at 223 nM in experiment [1] (Homo sapiens, Ramos) and 2940 nM in experiment [2] (Homo sapiens, U-937, U937 cells stimulated with IFNγ).

As to `COc1ccc(Nc2nc(Nc3cccc(S(=O)(=O)NN4CCC(C)CC4)c3)ncc2F)cc1Cl` [VI-9, N4-(3-Chloro-4-methoxyphenyl)-5-fluoro-N2-[3-(4-methylpipendin-1-yl)aminosulfonylphenyl]-2,4-pyrimidinediamine], the values for the IC50 in experiment [1] and in experiment [2] (setting [3]) were 53.3 nM and 14500 nM, respectively.
